{"source": "patent US20100181035A1", "about": "“GLUCOSYLTRANSFERASES” (UNIVERSITY OF YORK, priority 2003, published 2010)", "key": {"[1]": {"molecular_target": "T1, glucosyltransferase 72E2 (UGT72E2) (Arabidopsis thaliana, UniProt Q9LVR1)", "T1 sequence (Q9LVR1 1-481)": "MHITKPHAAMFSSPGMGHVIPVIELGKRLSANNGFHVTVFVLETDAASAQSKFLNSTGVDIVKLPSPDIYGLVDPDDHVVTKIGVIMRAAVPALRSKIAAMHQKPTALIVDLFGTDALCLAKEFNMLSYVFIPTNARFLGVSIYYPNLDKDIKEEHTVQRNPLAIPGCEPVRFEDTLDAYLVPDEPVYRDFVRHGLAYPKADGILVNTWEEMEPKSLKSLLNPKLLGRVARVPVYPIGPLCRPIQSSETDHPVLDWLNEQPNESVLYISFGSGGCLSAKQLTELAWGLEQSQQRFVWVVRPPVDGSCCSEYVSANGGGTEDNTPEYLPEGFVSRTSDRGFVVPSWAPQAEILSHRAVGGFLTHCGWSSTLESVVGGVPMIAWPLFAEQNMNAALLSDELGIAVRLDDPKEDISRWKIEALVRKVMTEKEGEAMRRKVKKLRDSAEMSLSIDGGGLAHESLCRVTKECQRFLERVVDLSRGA", "assay": "Glucosyltransferase activity assay with 72E2, HPLC analysis", "assay_type": "biochemical", "details": "substrate glucosylation; HPLC peak area; conditions for UGT72E1: 1 mM substrate, 5 mM UDP-glucose, pH 7.0, 30° C., 1 h"}, "[2]": {"molecular_target": "T2, glucosyltransferase 72E1 (UGT72E1) (Arabidopsis thaliana, UniProt Q94A84)", "T2 construct": "made in house; host or cells: E. coli", "T2 sequence (Q94A84 1-487)": "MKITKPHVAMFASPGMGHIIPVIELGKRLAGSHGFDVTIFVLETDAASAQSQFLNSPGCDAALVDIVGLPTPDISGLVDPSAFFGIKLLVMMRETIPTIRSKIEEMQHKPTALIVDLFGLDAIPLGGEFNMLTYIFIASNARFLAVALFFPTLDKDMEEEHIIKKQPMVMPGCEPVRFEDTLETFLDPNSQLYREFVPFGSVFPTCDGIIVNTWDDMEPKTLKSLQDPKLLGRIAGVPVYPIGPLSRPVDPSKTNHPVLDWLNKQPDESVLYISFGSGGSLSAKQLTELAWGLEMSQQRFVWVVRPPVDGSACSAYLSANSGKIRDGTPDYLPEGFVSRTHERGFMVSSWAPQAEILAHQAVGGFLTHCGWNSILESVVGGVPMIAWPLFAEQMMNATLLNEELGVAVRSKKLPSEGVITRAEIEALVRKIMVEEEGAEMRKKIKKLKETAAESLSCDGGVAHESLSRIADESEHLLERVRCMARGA", "assay": "Glucosyltransferase activity assay with recombinant UGT72E1, HPLC analysis", "assay_type": "biochemical", "details": "substrate glucosylation; 2 μg enzyme, 1 mM phenolic substrate, 5 mM UDP-glucose, 100 mM Tris-HCl pH 7.0, 30° C., 1 h; HPLC peak area", "method": "Recombinant UGT72E1 was expressed and purified from E. coli as described previously (Lim et al., 2001, J. Biol. Chem. 276, 4344-4349). The enzyme (2 μg) was incubated with 1 mM phenolic substrates, 5 mM UDP-glucose, 100 mM Tris-HCl, pH 7.0 in a total volume 200 μl. The reaction mix was incubated at 30° C. for 1 h and was analysed using HPLC subsequently.\nConiferyl alcohol: 10-25% acetonitrile (0.1% TFA), 306 nm Sinapyl alcohol: 10-25% acetonitrile (0.1% TFA), 285 nm p-coumaryl alcohol: 10-25% acetonitrile (0.1% TFA), 311 nm coniferyl aldehyde: 10-47% acetonitrile (0.1% TFA), 311 nm sinapyl aldehyde: 10-47% acetonitrile (0.1% TFA), 280 nm p-coumaryl aldehyde: 10-47% acetonitrile (0.1% TFA), 315 nm"}}}
{"smiles": "COc1cc(/C=C/CO)ccc1O", "note": "[Coniferyl alcohol]", "values": [{"measurement": "Activity (area, uv × sec) 72E2", "setting": "[1]", "value": 29756923, "unit": "uv × sec"}, {"measurement": "Activity (area, uv × sec) 72E1", "setting": "[2]", "value": 3225766, "unit": "uv × sec"}]}
{"smiles": "COc1cc(/C=C/C=O)ccc1O", "note": "[Coniferyl aldehyde]", "values": [{"measurement": "Activity (area, uv × sec) 72E2", "setting": "[1]", "value": 5068215, "unit": "uv × sec"}, {"measurement": "Activity (area, uv × sec) 72E1", "setting": "[2]", "value": 21950129, "unit": "uv × sec"}]}
{"smiles": "COc1cc(/C=C/CO)cc(OC)c1O", "note": "[Sinapyl alcohol]", "values": [{"measurement": "Activity (area, uv × sec) 72E2", "setting": "[1]", "value": 3339410, "unit": "uv × sec"}, {"measurement": "Activity (area, uv × sec) 72E1", "setting": "[2]", "value": 0, "unit": "uv × sec"}]}
{"smiles": "COc1cc(/C=C/C=O)cc(OC)c1O", "note": "[Sinapyl aldehyde]", "values": [{"measurement": "Activity (area, uv × sec) 72E2", "setting": "[1]", "value": 37002362, "unit": "uv × sec"}, {"measurement": "Activity (area, uv × sec) 72E1", "setting": "[2]", "value": 13655427, "unit": "uv × sec"}]}
{"smiles": "OC/C=C/c1ccc(O)cc1", "note": "[p-coumaryl alcohol]", "values": [{"measurement": "Activity (area, uv × sec) 72E2", "setting": "[1]", "value": 0, "unit": "uv × sec"}, {"measurement": "Activity (area, uv × sec) 72E1", "setting": "[2]", "value": 0, "unit": "uv × sec"}]}
{"smiles": "O=C/C=C/c1ccc(O)cc1", "note": "[p-coumaryl aldehyde]", "values": [{"measurement": "Activity (area, uv × sec) 72E2", "setting": "[1]", "value": 2612331, "unit": "uv × sec"}, {"measurement": "Activity (area, uv × sec) 72E1", "setting": "[2]", "value": 9243651, "unit": "uv × sec"}]}
